Here are results for 15 molecules from patent publication US11814367B2, “Inhibitors of glycogen synthase 1 (GYS1) and methods of use thereof” (Maze Therapeutics, Inc., priority 2021, dated 2023).

Assay [1] deals with hGYS1 enzyme (recombinant hGYS1/GN1 protein) (Homo sapiens (Human), UniProt P13807). Description: GYS1 coupled enzyme assay (PK/LDH). It is filed as biochemical. To be noted: hGYS1/GN1 50 nM, UDP-Glucose 0.8 mM, G6P 1 mM; geometric mean of at least 2 runs.
Assay [2] deals with hGYS1 enzyme / glycogen synthesis in HeLa cells. Description: GYS1 cell based assay (glycogen synthesis, Glucose-glo). Set-up: species or system human. The following applies: Homo sapiens, HeLa, 24 h, 24 h incubation, 20 mM glucose, geometric mean of at least 2 runs. In short, it runs like this: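 HeLa cells starved 24 h in medium containing only 1× Glutamax were plated onto compound in medium with 20 mM glucose (1% DMSO final) for 24 h, 37 °C, 5% CO2. Acid lysates were Tris-quenched, glucoamylase-digested (pH 5.3, 1 h, 37 °C) and read by Glucose-glo luminescence. IC50 came from Hill fits, as geometric mean of ≥2 runs.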

In assay [3] the target is hGYS2 enzyme (recombinant hGYS2/GN1 protein) (Homo sapiens (Human), UniProt P54840). In words: GYS2 coupled enzyme assay (PK/LDH). It is filed as biochemical. The following applies: geometric mean of at least 2 assay runs on separate days, read-out: Avg_IC50. In short, it runs like this: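 hGYS2/GN1 200 nM; UDP-Glc 2 mM; glycogen 0.2%; G6P 2 mM; PEP 2 mM, NADH 0.6 mM, PK/LDH 20 U/mL. 50 mM Tris pH 7.5, MgCl2, KCl, BSA, TCEP, 2.5% DMSO. Kinetic A340, 10 min. IC50 = geomean of ≥2 runs.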
Chain of hGYS2 enzyme (recombinant hGYS2/GN1 protein) (P54840 whole entry): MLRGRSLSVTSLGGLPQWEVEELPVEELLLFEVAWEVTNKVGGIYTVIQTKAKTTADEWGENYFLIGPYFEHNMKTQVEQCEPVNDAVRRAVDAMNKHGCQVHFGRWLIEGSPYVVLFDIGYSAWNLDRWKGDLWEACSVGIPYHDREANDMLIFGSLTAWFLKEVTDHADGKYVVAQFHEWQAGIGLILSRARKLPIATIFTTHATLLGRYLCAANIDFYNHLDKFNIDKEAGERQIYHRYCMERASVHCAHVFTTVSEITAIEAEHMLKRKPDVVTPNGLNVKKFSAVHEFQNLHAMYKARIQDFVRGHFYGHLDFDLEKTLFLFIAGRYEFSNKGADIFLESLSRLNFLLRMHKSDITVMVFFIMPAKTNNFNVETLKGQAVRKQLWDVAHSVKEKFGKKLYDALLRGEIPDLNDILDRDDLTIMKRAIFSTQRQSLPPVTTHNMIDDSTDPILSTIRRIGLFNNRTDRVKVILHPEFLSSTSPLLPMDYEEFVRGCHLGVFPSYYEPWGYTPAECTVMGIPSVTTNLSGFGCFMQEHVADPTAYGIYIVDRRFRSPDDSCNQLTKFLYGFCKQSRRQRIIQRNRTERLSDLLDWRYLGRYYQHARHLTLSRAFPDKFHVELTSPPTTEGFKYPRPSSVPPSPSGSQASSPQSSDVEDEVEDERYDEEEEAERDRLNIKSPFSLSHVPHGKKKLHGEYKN
Chain of hGYS2 enzyme (recombinant hGYS2/GN1 protein) (P46976 whole entry partner): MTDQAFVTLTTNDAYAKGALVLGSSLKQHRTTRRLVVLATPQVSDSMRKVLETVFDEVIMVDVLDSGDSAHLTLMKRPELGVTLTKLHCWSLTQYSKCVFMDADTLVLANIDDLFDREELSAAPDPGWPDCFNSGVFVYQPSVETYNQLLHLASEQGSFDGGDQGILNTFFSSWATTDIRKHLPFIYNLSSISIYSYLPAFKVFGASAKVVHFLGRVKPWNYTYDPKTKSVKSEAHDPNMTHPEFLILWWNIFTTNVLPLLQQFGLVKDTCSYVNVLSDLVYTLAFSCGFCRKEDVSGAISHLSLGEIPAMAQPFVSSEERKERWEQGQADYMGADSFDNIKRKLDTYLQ

Chain of hGYS1 enzyme (recombinant hGYS1/GN1 protein) (P13807 whole entry): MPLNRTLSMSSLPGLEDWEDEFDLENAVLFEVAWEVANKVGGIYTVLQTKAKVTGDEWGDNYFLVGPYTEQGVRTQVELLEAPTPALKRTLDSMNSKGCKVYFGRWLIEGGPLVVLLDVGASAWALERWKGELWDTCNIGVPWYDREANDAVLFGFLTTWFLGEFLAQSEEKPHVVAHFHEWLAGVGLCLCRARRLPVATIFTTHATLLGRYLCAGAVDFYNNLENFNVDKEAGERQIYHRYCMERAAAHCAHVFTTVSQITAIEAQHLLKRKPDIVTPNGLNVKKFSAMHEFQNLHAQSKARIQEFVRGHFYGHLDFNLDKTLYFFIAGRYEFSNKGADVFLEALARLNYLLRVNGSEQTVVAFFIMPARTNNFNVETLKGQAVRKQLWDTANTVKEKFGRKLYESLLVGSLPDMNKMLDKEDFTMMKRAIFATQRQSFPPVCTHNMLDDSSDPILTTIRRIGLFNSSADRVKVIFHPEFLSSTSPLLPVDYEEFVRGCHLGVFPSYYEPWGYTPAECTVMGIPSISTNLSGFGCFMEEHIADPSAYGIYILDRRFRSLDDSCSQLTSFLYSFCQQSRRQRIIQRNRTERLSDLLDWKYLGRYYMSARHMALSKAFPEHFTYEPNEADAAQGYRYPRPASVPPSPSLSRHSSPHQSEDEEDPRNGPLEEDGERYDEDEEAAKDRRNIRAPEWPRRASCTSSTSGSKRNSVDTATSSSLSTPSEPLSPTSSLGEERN
Chain of hGYS1 enzyme (recombinant hGYS1/GN1 protein) (P46976 whole entry partner): as the sequence (P46976 whole entry partner) above

For the molecule `Cc1cnc(CC(=O)N2C[C@H](F)C[C@H]2C(=O)N[C@@H](c2ccccc2)c2ccc(C3CC(F)(F)C3)cn2)o1` [Compound 536, (2S,4R)-N-[(S)-[5-(3,3-difluorocyclobutyl)pyridin-2-yl](phenyl)methyl]-4-fluoro-1-[2-(5-methyl-1,3-oxazol-2-yl)acetyl]pyrrolidine-2-carboxamide], the IC50 in assay [1] was 24 nM; in assay [2], 350 nM; in assay [3], greater than 100000 nM.
For the molecule `O=C(N[C@@H](c1ccccc1)c1ccc(C2CC(F)(F)C2)cn1)[C@@H]1C[C@@H](F)CN1C(=O)Cn1cnc2ccccc21` [Compound 537, (2S,4R)-1-[2-(1H-1,3-benzodiazol-1-yl)acetyl]-N-[(S)-[5-(3,3-difluorocyclobutyl)pyridin-2-yl] (phenyl)methyl]-4-fluoropyrrolidine-2-carboxamide], the IC50 in assay [1] was 11 nM; in assay [2], 160 nM; in assay [3], greater than 100000 nM.
The matching figures for `O=C(N[C@@H](c1ccccc1)c1ccc(C2CC(F)(F)C2)cn1)[C@@H]1C[C@@H](F)CN1C(=O)CNC(=O)N1CC(F)(F)C1` [Compound 538, (2S,4R)-1-{2-[(3,3-difluoroazetidine-1-carbonyl)amino]acetyl}-N-[(S)-[5-(3,3-difluorocyclobutyl)pyridin-2-yl](phenyl)methyl]-4-fluoropyrrolidine-2-carboxamide]: 48 nM, 1220 nM and greater than 100000 nM.
As to `O=C(N[C@@H](c1ccccc1)c1ccc(C2CC(F)(F)C2)cn1)[C@@H]1C[C@@H](F)CN1C(=O)Cc1ncco1` [Compound 539, (2S,4R)-N-[(S)-[5-(3,3-difluorocyclobutyl)pyridin-2-yl] (phenyl)methyl]-4-fluoro-1-[2-(1,3-oxazol-2-yl)acetyl] pyrrolidine-2-carboxamide], the IC50 in assay [1] was 68 nM; in assay [2], 960 nM; in assay [3], greater than 100000 nM.
With `Cc1coc(CC(=O)N2C[C@H](F)C[C@H]2C(=O)N[C@@H](c2ccccc2)c2ccc(C3CC(F)(F)C3)cn2)n1` [Compound 540, (2S,4R)-N-[(S)-[5-(3,3-difluorocyclobutyl)pyridin-2-yl] (phenyl)methyl]-4-fluoro-1-[2-(4-methyl-1,3-oxazol-2-yl)acetyl] pyrrolidine-2-carboxamide], the IC50 was 47 nM in assay [1], 590 nM in assay [2] and greater than 100000 nM in assay [3].
For `Cc1nn(CC(=O)N2C[C@H](F)C[C@H]2C(=O)N[C@@H](c2ccccc2)c2ccc(C3CC(F)(F)C3)cn2)c(=O)o1` [Compound 541, (2S,4R)-N-[(S)-[5-(3,3-difluorocyclobutyl)pyridin-2-yl](phenyl)methyl]-4-fluoro-1-[2-(5-methyl-2-oxo-2,3-dihydro-1,3,4-oxadiazol-3-yl)acetyl]pyrrolidine-2-carboxamide], the IC50 in assay [1] was 55 nM; in assay [2] it was 650 nM; in assay [3], greater than 100000 nM.
`O=C(N[C@@H](c1ccccc1)c1ccc(C2CC(F)(F)C2)cn1)[C@@H]1C[C@@H](F)CN1C(=O)Cc1[nH]nnc1C(F)(F)F` [Compound 542, (2S,4R)-N-[(S)-[5-(3,3-difluorocyclobutyl)pyridin-2-yl] (phenyl)methyl]-4-fluoro-1-{2-[4-(trifluoromethyl)-1H-1,2,3-triazol-5-yl]acetyl} pyrrolidine-2-carboxamide]: the IC50 in assay [1] is 11 nM; in assay [2], 1480 nM; in assay [3] it was greater than 100000 nM.
Take `O=C(N[C@@H](c1ccccc1)c1ccc(C2CC(F)(F)C2)c(F)c1)[C@@H]1C[C@@H](F)CN1C(=O)CNC(=O)N1CCC1` [Compound 544, (2S,4R)-1-((azetidine-1-carbonyl)glycyl)-N—((S)-(4-(3,3-difluorocyclobutyl)-3-fluorophenyl)(phenyl)methyl)-4-fluoropyrrolidine-2-carboxamide]: the IC50 is 11 nM in assay [1], 260 nM in assay [2] and greater than 100000 nM in assay [3].
For the molecule `O=C(N[C@@H](c1ccccc1)c1ccc(C2CC(F)(F)C2)c(F)c1)[C@@H]1C[C@@H](F)CN1C(=O)Cc1cnn[nH]1` [Compound 546, (2S,4R)-N-[(S)-[4-(3,3-difluorocyclobutyl)-3-fluorophenyl](phenyl)methyl]-4-fluoro-1-[2-(1H-1,2,3-triazol-5-yl)acetyl]pyrrolidine-2-carboxamide], the IC50 in assay [1] is 27 nM; in assay [2], 510 nM; in assay [3], greater than 100000 nM.
The matching figures for `CN(C)C(=O)NCC(=O)N1C[C@H](F)C[C@H]1C(=O)N[C@@H](c1ccccc1)c1ccc(C2CC(F)(F)C2)c(F)c1` [Compound 547, (2S,4R)-N-[(S)-[4-(3,3-difluorocyclobutyl)-3-fluorophenyl](phenyl)methyl]-1-{2-[(dimethylcarbamoyl)amino]acetyl}-4-fluoropyrrolidine-2-carboxamide]: 16 nM, 360 nM and greater than 100000 nM.
In the case of `CN(C)C(=O)NCC(=O)N1C[C@H](F)C[C@H]1C(=O)N[C@H](c1ccccc1)c1ccc(C2CC(F)(F)C2)c(F)c1` [Compound 548, (2S,4R)-N-[(R)-[4-(3,3-difluorocyclobutyl)-3-fluorophenyl](phenyl)methyl]-1-{2-[(dimethylcarbamoyl)amino]acetyl}-4-fluoropyrrolidine-2-carboxamide], the IC50 was 328 nM in assay [1], 5760 nM in assay [2] and greater than 100000 nM in assay [3].
Turning to `O=C(N[C@@H](c1ccccc1)c1ccc(C2CC(F)(F)C2)c(F)c1)[C@@H]1C[C@@H](F)CN1C(=O)Cn1cnc2ccccc21` [Compound 549, (2S,4R)-1-[2-(1H-1,3-benzodiazol-1-yl)acetyl]-N-[(S)-[4-(3,3-difluorocyclobutyl)-3-fluorophenyl](phenyl)methyl]-4-fluoropyrrolidine-2-carboxamide], the IC50 in assay [1] is 6 nM; in assay [2] it was 120 nM; in assay [3] it was greater than 100000 nM.
Regarding `Cc1cnc(CC(=O)N2C[C@H](F)C[C@H]2C(=O)N[C@@H](c2ccccc2)c2ccc(C3CC(F)(F)C3)c(F)c2)o1` [Compound 550, (2S,4R)-N-[(S)-[4-(3,3-difluorocyclobutyl)-3-fluorophenyl](phenyl)methyl]-4-fluoro-1-[2-(5-methyl-1,3-oxazol-2-yl)acetyl]pyrrolidine-2-carboxamide], the IC50 in assay [1] was 42 nM; in assay [2] it was 650 nM; in assay [3], greater than 100000 nM.
With `Cc1cn(CC(=O)N2C[C@H](F)C[C@H]2C(=O)N[C@@H](c2ccccc2)c2ccc(C3CC(F)(F)C3)c(F)c2)c(=O)[nH]c1=O` [Compound 551, (2S,4R)-N-[(S)-[4-(3,3-difluorocyclobutyl)-3-fluorophenyl](phenyl)methyl]-4-fluoro-1-[2-(5-methyl-2,4-dioxo-1,2,3,4-tetrahydropyrimidin-1-yl)acetyl]pyrrolidine-2-carboxamide], the IC50 in assay [1] was 7 nM; in assay [2], 210 nM; in assay [3], greater than 100000 nM.
For `O=C(N[C@@H](c1ccccc1)c1ccc(C2CC(F)(F)C2)c(F)c1)[C@@H]1C[C@@H](F)CN1C(=O)Cc1ncco1` [Compound 552, (2S,4R)-N-[(S)-[4-(3,3-difluorocyclobutyl)-3-fluorophenyl](phenyl)methyl]-4-fluoro-1-[2-(1,3-oxazol-2-yl)acetyl]pyrrolidine-2-carboxamide], the IC50 was 82 nM in assay [1], 1120 nM in assay [2] and greater than 100000 nM in assay [3].
